Results taken from patent US9593121B2, “Indole substituted pyrrolopyrimidinyl inhibitors of Uba6” (Millennium Pharmaceuticals, Inc., priority 2012, dated 2017).
Where a name gives a salt, the structure may show the parent alone.

Target: recombinant human his-UBA6 enzyme (Homo sapiens (Human), UniProt A0AVT1)
Test: UBA6 AlphaScreen Assay
Format: biochemical
Details: for inhibition at 0.123 µM: compound at 0.123 μM
Procedure: UBA6 AlphaScreen® Assay. The UBA6 enzmatic reaction totals 20 μL and contains 50 mM HEPES (pH 7.5), 0.05% BSA, 0.02% Tween 20, 0.1 mM TCEP, 5 mM MgCl2, 2 μM ATP, 60 nM Flag-Ubiquitin, 20 nM Biotin-his-Use1, and 0.15 nM recombinant human his-UBA6 enzyme. The enzymatic reaction mixture, with and without compound inhibitor, is incubated at 24° C. for 90 minutes in a 384 well plate before termination with 10 μL of Stop/Detection buffer (50 mM HEPES (pH 7.5), 0.05% BSA, 0.02% Tween 20, 0.1 mM TCEP, 20 mM EDTA, 30 μg/ml anti-FLAG Acceptor beads (Perkin Elmer), and 6 μg/mL streptavidin donor beads (Perkin Elmer). After incubation for 2 hours at 24° C. in a dark room, quantification of the AlphaScreen signal is performed on the Pherastar™ (BMG).

Chain of recombinant human his-UBA6 enzyme (A0AVT1 whole entry): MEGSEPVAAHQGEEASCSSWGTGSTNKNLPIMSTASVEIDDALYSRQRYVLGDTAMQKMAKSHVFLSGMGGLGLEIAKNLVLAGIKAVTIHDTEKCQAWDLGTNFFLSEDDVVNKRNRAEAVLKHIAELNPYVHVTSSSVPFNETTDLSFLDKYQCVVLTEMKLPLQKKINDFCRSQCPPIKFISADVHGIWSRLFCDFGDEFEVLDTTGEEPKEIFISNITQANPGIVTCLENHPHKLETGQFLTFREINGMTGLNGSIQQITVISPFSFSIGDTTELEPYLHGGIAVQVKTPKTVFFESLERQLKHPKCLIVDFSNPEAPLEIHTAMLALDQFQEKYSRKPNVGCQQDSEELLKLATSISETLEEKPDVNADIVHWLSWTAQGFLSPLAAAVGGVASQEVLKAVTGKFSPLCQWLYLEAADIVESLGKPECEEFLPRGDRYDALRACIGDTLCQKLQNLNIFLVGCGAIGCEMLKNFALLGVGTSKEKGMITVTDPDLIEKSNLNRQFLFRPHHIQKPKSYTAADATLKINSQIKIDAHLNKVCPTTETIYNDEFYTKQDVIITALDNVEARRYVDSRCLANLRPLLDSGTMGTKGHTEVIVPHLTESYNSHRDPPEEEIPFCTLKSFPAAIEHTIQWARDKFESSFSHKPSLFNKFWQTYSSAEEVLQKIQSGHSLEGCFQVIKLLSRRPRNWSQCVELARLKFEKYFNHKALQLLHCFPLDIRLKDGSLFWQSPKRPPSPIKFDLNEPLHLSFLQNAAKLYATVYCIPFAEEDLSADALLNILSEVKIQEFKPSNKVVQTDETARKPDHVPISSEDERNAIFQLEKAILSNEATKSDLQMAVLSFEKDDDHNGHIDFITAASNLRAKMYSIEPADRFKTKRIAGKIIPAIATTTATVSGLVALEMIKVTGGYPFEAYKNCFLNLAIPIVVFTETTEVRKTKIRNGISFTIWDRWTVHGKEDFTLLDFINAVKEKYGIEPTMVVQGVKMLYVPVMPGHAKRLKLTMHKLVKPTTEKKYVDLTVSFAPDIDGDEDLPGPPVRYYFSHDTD

Row | SMILES | IC50 | inhibition at 0.123 µM | inhibition at 1.11 µM (compound at 1.11 μM (footnote ‡))
1 | Cn1c(-c2ncnc3c2ccn3[C@@H]2C[C@@H](COS(N)(=O)=O)[C@@H](O)C2)cc2ccccc21 [Compound I-02, {(1S,2S,4R)-2-hydroxy-4-[4-(1-methyl-1H-indol-2-yl)-7H-pyrrolo[2,3-d]pyrimidin-7-yl]cyclopentyl}methyl sulfamate HCl] | 50 to 2000 nM | 5.9% | –
2 | NS(=O)(=O)OC[C@@H]1C[C@@H](n2ccc3c(-c4cc5cc(F)c(Cl)cc5[nH]4)ncnc32)C[C@@H]1O [Compound I-09, {(1S,2S,4R)-4-[4-(6-chloro-5-fluoro-1H-indol-2-yl)-7H-pyrrolo[2,3-d]pyrimidin-7-yl]-2-hydroxycyclopentyl}methyl sulfamate] | 50 to 2000 nM | 49% | –
3 | COc1ccc2cc(-c3ncnc4c3ccn4[C@@H]3C[C@@H](COS(N)(=O)=O)[C@@H](O)C3)n(C(=O)OC(C)(C)C)c2c1 [Compound I-10, tert-butyl 2-(7-{(1R,3S,4S)-3-hydroxy-4-[(sulfamoyloxy)methyl]cyclopentyl}-7H-pyrrolo[2,3-d]pyrimidin-4-yl)-6-methoxy-1H-indole-1-carboxylate] | 50 to 2000 nM | – | 26%
4 | NS(=O)(=O)OC[C@@H]1C[C@@H](n2ccc3c(-c4cc5cc(F)ccc5[nH]4)ncnc32)C[C@@H]1O [Compound I-11, {(1S,2S,4R)-4-[4-(5-fluoro-1H-indol-2-yl)-7H-pyrrolo[2,3-d]pyrimidin-7-yl]-2-hydroxycyclopentyl}methyl sulfamate] | 50 to 2000 nM | 61% | –
5 | COc1cccc2cc(-c3ncnc4c3ccn4[C@@H]3C[C@@H](COS(N)(=O)=O)[C@@H](O)C3)[nH]c12 [Compound I-12, {(1S,2S,4R)-2-hydroxy-4-[4-(7-methoxy-1H-indol-2-yl)-7H-pyrrolo[2,3-d]pyrimidin-7-yl]cyclopentyl}methyl sulfamate] | 50 to 2000 nM | 12% | –
6 | Cc1c(-c2ncnc3c2ccn3[C@@H]2C[C@@H](COS(N)(=O)=O)[C@@H](O)C2)[nH]c2ccccc12 [Compound I-13, {(1S,2S,4R)-2-hydroxy-4-[4-(3-methyl-1H-indol-2-yl)-7H-pyrrolo[2,3-d]pyrimidin-7-yl]cyclopentyl}methyl sulfamate] | 50 to 2000 nM | 16% | –
7 | NS(=O)(=O)OC[C@@H]1C[C@@H](n2ccc3c(-c4cc5ccc(C(F)(F)F)cc5[nH]4)ncnc32)C[C@@H]1O [Compound I-14, [(1S,2S,4R)-2-hydroxy-4-{4-[6-(trifluoromethyl)-1H-indol-2-yl]-7H-pyrrolo[2,3-d]pyrimidin-7-yl}cyclopentyl]methyl sulfamate] | 50 to 2000 nM | 32% | –

Further lines, results first:

Row | IC50 | inhibition at 0.123 µM | inhibition at 1.11 µM (compound at 1.11 μM (footnote ‡)) | SMILES
8 | ≤ 50 nM | 87% | – | NS(=O)(=O)OC[C@@H]1C[C@@H](n2ccc3c(-c4cc5ccccc5[nH]4)ncnc32)C[C@@H]1O [Compound I-01, ((1S,2S,4R)-4-(4-(1H-indol-2-yl)-7H-pyrrolo[2,3-d]pyrimidin-7-yl)-2-hydroxycyclopentyl)methyl sulfamate HCl]
9 | ≤ 50 nM | 93% | – | COc1ccc2[nH]c(-c3ncnc4c3ccn4[C@@H]3C[C@@H](COS(N)(=O)=O)[C@@H](O)C3)cc2c1 [Compound I-03, {(1S,2S,4R)-2-hydroxy-4-[4-(5-methoxy-1H-indol-2-yl)-7H-pyrrolo[2,3-d]pyrimidin-7-yl]cyclopentyl}methyl sulfamate]
10 | ≤ 50 nM | 91% | – | NS(=O)(=O)OC[C@@H]1C[C@@H](n2ccc3c(-c4cc5ccc(Cl)cc5[nH]4)ncnc32)C[C@@H]1O [Compound I-04, {(1S,2S,4R)-4-[4-(6-chloro-1H-indol-2-yl)-7H-pyrrolo[2,3-d]pyrimidin-7-yl]-2-hydroxycyclopentyl}methyl sulfamate]
11 | ≤ 50 nM | 86% | – | N#Cc1ccc2cc(-c3ncnc4c3ccn4[C@@H]3C[C@@H](COS(N)(=O)=O)[C@@H](O)C3)[nH]c2c1 [Compound I-05, {(1S,2S,4R)-4-[4-(6-cyano-1H-indol-2-yl)-7H-pyrrolo[2,3-d]pyrimidin-7-yl]-2-hydroxycyclopentyl}methyl sulfamate]
12 | ≤ 50 nM | 88% | – | Cc1ccc2cc(-c3ncnc4c3ccn4[C@@H]3C[C@@H](COS(N)(=O)=O)[C@@H](O)C3)[nH]c2c1 [Compound I-06, {(1S,2S,4R)-2-hydroxy-4-[4-(6-methyl-1H-indol-2-yl)-7H-pyrrolo[2,3-d]pyrimidin-7-yl]cyclopentyl}methyl sulfamate]
13 | ≤ 50 nM | 90% | – | COc1ccc2cc(-c3ncnc4c3ccn4[C@@H]3C[C@@H](COS(N)(=O)=O)[C@@H](O)C3)[nH]c2c1 [Compound I-07, {(1S,2S,4R)-2-hydroxy-4-[4-(6-methoxy-1H-indol-2-yl)-7H-pyrrolo[2,3-d]pyrimidin-7-yl]cyclopentyl}methyl sulfamate]
14 | ≤ 50 nM | 74% | – | Cc1nc(-c2cc3ccccc3[nH]2)c2ccn([C@@H]3C[C@@H](COS(N)(=O)=O)[C@@H](O)C3)c2n1 [Compound I-08, {(1S,2S,4R)-2-hydroxy-4-[4-(1H-indol-2-yl)-2-methyl-7H-pyrrolo[2,3-d]pyrimidin-7-yl]cyclopentyl}methyl sulfamate HCl]
